Reference: ChEMBL document CHEMBL1201862, “PubChem BioAssay data set” (2004)
Active and inactive are the calls of the source.

Legend:
[1] = target: Sphingosine 1-phosphate receptor 2 (Homo sapiens, UniProt O95136); test: Dose Response Cell Based Assay for Agonists of the S1P2 Receptor. [Related pubchem assays: 729, 736, 843 ]; format: functional
[2] = target: Eukaryotic translation initiation factor 4E (Mus musculus, UniProt P63073); test: eIF4E–eIF4G protein interaction inhibitors, dose response, biochemical, TR-FRET (AID 855); format: functional;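 further: potency for disrupting eIF4E binding to eIF4GI seen as loss of FRET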
Chain of Eukaryotic translation initiation factor 4E (P63073 whole entry): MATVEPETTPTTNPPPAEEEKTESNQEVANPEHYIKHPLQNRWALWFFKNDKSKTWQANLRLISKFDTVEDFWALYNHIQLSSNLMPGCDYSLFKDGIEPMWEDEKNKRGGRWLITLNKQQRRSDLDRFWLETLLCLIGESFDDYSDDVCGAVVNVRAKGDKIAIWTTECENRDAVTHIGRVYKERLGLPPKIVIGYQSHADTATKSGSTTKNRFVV

[3] = A549 cell cytotoxicity, dose response, CellTiter-Glo luminescence, dry powder, set 17 (AID 1117284); format: functional, cell-based
[4] = Single fluorophore orthopox expression reporter, late gene expression Measured in Cell-Based and Microorganism Combination System Using Plate Reader - 2142-08_Inhibitor_Dose_DryPowder_Activity.; format: functional
[5] = inhibitors of orthopox intermediate gene expression, dose response, cell-based, single fluorophore reporter, dry powder (AID 1117271); format: functional
[6] = target: Peroxisome proliferator-activated receptor gamma/Nuclear receptor coactivator 1 (Homo sapiens, UniProt P37231); test: (§1) TR-FRET dose response biochemical High Throughput Screening assay for agonists of the steroid receptor coactivator 1 (SRC-1) recruitment by the peroxisome proliferator-activated receptor gamma (PPAR gamma): non-selective agonists. [Related pubchem assays (depositor defined):AID1300, AID1808, AID504735, AID631]; format: protein assay
Chain of Peroxisome proliferator-activated receptor gamma/Nuclear receptor coactivator 1 (P37231 whole entry): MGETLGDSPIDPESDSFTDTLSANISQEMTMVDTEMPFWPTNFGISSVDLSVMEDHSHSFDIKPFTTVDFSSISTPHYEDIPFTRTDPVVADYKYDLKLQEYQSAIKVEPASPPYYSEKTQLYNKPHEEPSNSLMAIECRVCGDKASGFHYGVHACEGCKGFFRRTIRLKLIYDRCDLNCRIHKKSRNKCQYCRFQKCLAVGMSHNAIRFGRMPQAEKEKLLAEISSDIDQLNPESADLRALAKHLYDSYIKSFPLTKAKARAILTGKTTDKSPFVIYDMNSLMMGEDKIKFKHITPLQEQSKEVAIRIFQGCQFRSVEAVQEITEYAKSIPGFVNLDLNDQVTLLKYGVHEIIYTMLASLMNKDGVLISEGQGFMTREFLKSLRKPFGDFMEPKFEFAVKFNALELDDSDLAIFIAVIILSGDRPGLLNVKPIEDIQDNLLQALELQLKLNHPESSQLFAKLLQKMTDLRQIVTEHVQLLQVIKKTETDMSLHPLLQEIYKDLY
Chain of Peroxisome proliferator-activated receptor gamma/Nuclear receptor coactivator 1 (Q15788 whole entry, further chain): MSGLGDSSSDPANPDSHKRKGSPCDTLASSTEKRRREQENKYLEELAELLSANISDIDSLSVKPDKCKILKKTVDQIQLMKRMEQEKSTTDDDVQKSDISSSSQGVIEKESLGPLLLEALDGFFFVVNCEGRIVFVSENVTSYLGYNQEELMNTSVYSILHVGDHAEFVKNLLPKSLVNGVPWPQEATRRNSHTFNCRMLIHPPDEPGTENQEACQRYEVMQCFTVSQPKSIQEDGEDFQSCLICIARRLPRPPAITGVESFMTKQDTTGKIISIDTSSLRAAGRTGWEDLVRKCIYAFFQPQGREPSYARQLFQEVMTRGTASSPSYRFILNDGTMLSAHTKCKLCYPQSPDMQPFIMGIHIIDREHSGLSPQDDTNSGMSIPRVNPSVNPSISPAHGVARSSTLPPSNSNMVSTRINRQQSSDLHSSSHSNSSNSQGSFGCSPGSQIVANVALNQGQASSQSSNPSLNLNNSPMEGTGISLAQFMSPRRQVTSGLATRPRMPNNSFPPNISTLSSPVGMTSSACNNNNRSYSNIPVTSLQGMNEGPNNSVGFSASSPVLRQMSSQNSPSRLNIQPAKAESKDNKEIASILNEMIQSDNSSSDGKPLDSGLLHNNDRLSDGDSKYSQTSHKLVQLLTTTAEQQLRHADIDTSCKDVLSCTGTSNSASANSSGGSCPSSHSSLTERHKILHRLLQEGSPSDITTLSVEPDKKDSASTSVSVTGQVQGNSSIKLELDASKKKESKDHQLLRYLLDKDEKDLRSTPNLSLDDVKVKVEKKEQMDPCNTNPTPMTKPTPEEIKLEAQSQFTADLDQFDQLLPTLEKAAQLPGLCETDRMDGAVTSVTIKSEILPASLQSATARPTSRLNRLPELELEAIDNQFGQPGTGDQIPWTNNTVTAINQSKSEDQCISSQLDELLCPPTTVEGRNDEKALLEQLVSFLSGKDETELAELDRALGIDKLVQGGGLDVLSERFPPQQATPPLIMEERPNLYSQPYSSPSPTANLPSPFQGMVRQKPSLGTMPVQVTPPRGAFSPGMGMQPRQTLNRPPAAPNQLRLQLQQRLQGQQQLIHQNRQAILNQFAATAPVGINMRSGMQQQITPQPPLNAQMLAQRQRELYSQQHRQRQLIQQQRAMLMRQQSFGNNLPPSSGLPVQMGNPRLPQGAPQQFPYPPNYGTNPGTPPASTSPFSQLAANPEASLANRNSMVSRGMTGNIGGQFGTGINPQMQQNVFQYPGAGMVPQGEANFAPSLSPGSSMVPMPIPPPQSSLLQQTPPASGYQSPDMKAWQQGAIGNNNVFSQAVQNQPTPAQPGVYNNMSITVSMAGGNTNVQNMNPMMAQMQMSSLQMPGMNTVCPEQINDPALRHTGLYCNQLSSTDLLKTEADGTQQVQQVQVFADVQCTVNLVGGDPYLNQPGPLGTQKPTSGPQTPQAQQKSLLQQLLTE

[7] = target: Mitogen-activated protein kinase 10 (Homo sapiens, UniProt P53779); test: Dose response biochemical screening assay for inhibitors of c-Jun N-Terminal Kinase 3 (JNK3). [Related pubchem assays: 746 ]
Chain of Mitogen-activated protein kinase 10 (P53779 whole entry): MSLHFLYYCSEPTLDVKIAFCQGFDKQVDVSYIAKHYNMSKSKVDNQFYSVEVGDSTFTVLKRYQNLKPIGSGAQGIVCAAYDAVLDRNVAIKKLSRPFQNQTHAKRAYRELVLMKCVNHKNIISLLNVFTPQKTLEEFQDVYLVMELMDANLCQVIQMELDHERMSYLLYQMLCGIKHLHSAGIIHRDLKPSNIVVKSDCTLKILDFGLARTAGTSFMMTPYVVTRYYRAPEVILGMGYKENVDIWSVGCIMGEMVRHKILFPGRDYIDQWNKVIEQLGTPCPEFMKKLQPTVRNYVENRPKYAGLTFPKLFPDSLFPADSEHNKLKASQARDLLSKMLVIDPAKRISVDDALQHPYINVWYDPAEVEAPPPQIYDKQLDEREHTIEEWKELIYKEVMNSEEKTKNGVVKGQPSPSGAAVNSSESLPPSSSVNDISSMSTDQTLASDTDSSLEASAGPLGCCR

[8] = target: Peroxisome proliferator-activated receptor gamma/Nuclear receptor coactivator 3 (Homo sapiens, UniProt P37231); test: as §1, with “3 (SRC-3)” for “1 (SRC-1)”, “assays: 1301 (Confirmation screen.), 1048 (Primary screen.)]” for “assays (depositor defined):AID1300, AID1808, AID504735, AID631]”; format: functional
[9] = target: Peroxisome proliferator-activated receptor gamma/Nuclear receptor coactivator 2 (Homo sapiens, UniProt P37231); test: TR-FRET dose response biochemical High Throughput Screening assay for agonists of the steroid receptor coactivator 2 (SRC-2) recruitment by the peroxisome proliferator-activated receptor gamma (PPAR gamma): non-selective agonists. [Related pubchem assays: 1297, 1032 ]; format: functional
Chain of Peroxisome proliferator-activated receptor gamma/Nuclear receptor coactivator 2 (P37231 whole entry): as the sequence (P37231 whole entry) above
Chain of Peroxisome proliferator-activated receptor gamma/Nuclear receptor coactivator 2 (Q15596 whole entry, further chain): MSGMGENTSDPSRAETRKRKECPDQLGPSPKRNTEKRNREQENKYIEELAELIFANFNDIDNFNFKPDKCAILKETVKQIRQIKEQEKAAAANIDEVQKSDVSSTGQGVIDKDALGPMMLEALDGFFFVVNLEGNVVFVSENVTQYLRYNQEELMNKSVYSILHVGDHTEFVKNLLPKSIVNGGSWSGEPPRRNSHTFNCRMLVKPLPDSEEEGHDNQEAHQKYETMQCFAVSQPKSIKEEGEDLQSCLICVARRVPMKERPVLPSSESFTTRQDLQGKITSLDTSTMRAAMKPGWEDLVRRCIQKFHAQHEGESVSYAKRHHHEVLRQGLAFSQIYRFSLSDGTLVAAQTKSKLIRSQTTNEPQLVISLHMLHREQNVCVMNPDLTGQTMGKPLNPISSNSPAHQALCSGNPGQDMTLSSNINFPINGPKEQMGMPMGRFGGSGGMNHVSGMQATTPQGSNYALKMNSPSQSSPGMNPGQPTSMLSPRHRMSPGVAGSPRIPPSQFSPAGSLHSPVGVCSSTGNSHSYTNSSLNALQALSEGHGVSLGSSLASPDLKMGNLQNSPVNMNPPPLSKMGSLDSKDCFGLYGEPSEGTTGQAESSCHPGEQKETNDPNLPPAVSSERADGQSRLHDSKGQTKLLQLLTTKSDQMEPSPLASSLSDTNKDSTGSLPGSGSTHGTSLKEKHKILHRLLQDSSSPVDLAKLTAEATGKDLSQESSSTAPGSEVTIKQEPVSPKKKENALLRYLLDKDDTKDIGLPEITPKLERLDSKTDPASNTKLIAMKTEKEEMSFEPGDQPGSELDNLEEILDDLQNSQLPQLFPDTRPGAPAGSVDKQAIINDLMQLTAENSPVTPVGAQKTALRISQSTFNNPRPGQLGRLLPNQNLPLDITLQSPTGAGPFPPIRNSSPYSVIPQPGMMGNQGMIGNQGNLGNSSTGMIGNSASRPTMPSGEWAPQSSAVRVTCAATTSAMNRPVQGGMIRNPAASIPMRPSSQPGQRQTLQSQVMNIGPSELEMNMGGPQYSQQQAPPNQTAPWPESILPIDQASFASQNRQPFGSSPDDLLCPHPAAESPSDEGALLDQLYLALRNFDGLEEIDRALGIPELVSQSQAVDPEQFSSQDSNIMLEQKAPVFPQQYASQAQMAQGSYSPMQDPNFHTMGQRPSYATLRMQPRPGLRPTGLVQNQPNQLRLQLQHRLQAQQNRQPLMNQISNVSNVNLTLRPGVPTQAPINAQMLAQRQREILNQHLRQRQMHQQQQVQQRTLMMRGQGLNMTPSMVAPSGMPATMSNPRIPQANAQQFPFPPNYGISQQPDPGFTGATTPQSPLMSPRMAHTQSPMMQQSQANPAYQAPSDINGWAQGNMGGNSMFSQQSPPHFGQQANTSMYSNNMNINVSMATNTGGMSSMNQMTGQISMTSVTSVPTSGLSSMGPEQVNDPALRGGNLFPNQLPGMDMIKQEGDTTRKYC

Chain of Sphingosine 1-phosphate receptor 2 (O95136 whole entry): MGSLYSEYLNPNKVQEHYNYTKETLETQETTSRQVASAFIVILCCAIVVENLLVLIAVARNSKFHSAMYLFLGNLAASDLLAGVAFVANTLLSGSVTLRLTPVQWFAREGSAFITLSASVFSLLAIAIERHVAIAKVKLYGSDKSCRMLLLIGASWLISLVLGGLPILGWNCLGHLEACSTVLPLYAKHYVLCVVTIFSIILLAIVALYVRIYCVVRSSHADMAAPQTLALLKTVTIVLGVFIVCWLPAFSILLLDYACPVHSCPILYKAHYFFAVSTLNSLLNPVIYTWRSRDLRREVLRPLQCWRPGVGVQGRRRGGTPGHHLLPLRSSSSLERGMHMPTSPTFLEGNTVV

CCOc1cccc(OCCCCn2ccnc2)c1
EC50 [1]: > 50 µM (not active) | IC50 [2]: > 64 µM (inactive)

C[C@@H](O)C#Cc1ccc2c(c1)O[C@@H](CN(C)Cc1ccc(-c3cccc(Cl)c3)cc1)[C@@H](C)CN([C@@H](C)CO)S2(=O)=O
AC50 [3]: 51.5 µM (active) | AC50 [4]: 2.54 µM (active) | AC50 [5]: 3.58 µM (active)

CC(=O)c1sc(Nc2ccccn2)nc1C
EC50 [6]: > 79.4 µM (inactive) | IC50 [7]: 40.3 µM (not active) | EC50 [8]: > 79.4 µM (not active) | EC50 [9]: > 79.4 µM (not active)
